Reference: PMC5508536 (Bioorganic & medicinal chemistry letters, 2017)

Columns and labels:
[1] = target: T1, rat M5 (Rattus norvegicus, UniProt P08911); assay: rat M5 intracellular calcium mobilization assay; type: cell-based
T1 sequence (P08911 1-531): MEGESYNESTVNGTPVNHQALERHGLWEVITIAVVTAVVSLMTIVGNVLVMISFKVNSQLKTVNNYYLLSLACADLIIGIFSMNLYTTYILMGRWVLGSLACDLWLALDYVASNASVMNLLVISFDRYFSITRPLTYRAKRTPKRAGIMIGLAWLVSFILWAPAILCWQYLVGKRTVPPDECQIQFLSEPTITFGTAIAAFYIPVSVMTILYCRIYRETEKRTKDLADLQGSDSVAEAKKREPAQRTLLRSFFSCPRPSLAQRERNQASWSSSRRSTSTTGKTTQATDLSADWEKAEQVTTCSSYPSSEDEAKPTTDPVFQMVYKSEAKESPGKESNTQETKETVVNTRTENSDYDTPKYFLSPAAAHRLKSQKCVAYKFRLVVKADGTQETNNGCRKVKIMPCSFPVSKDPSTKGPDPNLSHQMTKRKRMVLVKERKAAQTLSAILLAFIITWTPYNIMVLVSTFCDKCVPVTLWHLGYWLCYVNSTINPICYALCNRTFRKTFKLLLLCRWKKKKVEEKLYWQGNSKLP

[2] = cited from earlier work
[3] = rat; cited from earlier work

Question: With `O=C(c1ccc(F)c(F)c1)N1CCN2C(=O)c3ccccc3[C@@]12c1ccc(N2CCCC(F)(F)C2)cc1` [4d] as the molecule, how does the “rat M5 potency relative to hM5” value [1] read?
Answer: ≤ 2 fold

Question: With `O=C(c1ccc(F)c(F)c1)N1CCN2C(=O)c3ccccc3[C@@]12c1ccc(N2CCC(F)(F)CC2)cc1` [4f] as the molecule, how does the “rat M5 potency relative to hM5” value [1] read?
Answer: ≤ 2 fold

Question: With `O=C(c1ccc(F)c(F)c1)N1CCN2C(=O)c3ccccc3[C@@]12c1ccc(Cl)cc1` [compound 1] as the molecule, how does the “elimination half-life t1/2” value ([2]; rat) read?
Answer: 80 h

Question: Which CNS penetration [3] does the source give for `COc1ccc([C@@]23c4ccccc4C(=O)N2CCN3C(=O)c2cc(F)c(F)c(F)c2)cc1C` [compound 2] here?
Answer: limited CNS penetration

Question: And the CLp ([2]; rat PK)?
Answer: > 70 mL/min/kg
